# Test results as given in patent US11446353B2, “Compositions and methods for the treatment of fungal infections” (priority 2014, dated 2022).
# Experiments:
# [1] = tested on: Coccidioides posadasii Δcts2/Δard1/Δcts3
# [2] = tested on: Coccidioides posadasii Δcts2/Δard1/Δcts3; format: cell-based
smiles,measurement,setting,value
CC/C(=C(\c1ccccc1)c1ccc(OCCN(C)C)cc1)c1ccccc1 [Tamoxifen],fungal growth inhibitory properties,[1],strong fungal growth inhibitory properties
same,hit strength in screen,[2],strong positive hit
